{
  "source": "patent US20090029949A1",
  "about": "“GPCR Ligands Identified by Computational Modeling” (priority 2006, published 2009)",
  "key": {"S1P1 mutant F5.43Y": {"target": "T1, S1P1 mutant F5.43Y (Homo sapiens, UniProt P21453, F205Y)", "T1 construct": "expressed in transfected cells; host or cells: RH7777 (transient, pcDNA3.1)", "T1 sequence (P21453 whole entry F205Y)": "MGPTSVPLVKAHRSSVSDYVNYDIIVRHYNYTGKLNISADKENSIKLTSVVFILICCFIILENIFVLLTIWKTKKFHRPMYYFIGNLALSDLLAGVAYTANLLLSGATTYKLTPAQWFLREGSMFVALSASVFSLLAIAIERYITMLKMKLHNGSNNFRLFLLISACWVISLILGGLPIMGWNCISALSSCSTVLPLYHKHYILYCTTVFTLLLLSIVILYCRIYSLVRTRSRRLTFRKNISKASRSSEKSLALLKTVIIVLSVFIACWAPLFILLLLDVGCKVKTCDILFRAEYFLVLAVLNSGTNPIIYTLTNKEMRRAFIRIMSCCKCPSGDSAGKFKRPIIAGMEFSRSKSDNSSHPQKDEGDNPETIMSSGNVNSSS", "test": "[35S]GTPγS binding, S1P1 F5.43Y", "format": "biochemical", "settings": "S1P-induced, S1P1 F5.43Y in RH7777 cells", "method": "(§1) RH7777 and HEK-293 cells (ATCC, Manassas, Va.) were maintained in Dulbecco's modified minimal essential medium (DMEM) containing 10% fetal bovine serum (Hyclone, Logan, Utah). Cells (2×10^6) were transfected with 2 μg of plasmid DNA with Effectene (Qiagen, Valencia, Calif.) according to the manufacturer's instructions, for 24 h. Before ligand binding and receptor activation assays, the cells were washed twice with serum-free DMEM and serum-starved for at least 6 h.\n(§2) S1P1 Receptor Activation Assays Receptor functional assays were performed in transiently transfected RH7777 cells by measuring S1P-activated [^35S]GTPγS binding as previously described (28)."}, "S1P1 mutant L3.36E [1]": {"target": "T2, S1P1 mutant L3.36E (Homo sapiens, UniProt P21453, L128E)", "T2 sequence (P21453 whole entry L128E)": "as the sequence (P21453 whole entry F205Y) above, with L128E, Y205F counted along it", "test": "[32P]S1P radioligand binding, RH7777 cells, L3.36E", "design": "expressed in transfected cells; host or cells: RH7777 (transient, pcDNA3.1)", "settings": "radioligand 50 nM, S1P1 L3.36E", "method": "as §1\nThe S1P binding assays were done essentially as previously described (28). Transfected RH7777 cells (5×10^5) were incubated at 4° C. in 20 mM Tris-HCl (pH 7.5) binding buffer containing 100 mM NaCl, 15 mM NaF, protease inhibitor cocktail (Sigma-Aldrich), and 0.2 mg/ml essentially fatty-acid free BSA with 1 nM [^32P]S1P in 50 nM S1P for 40 min. Cells were centrifuged and washed twice in binding buffer. The final pellet was resuspended in 2:1 CHCl3/MeOH and the suspension was equilibrated in scintillation fluid overnight. Cell-bound radioactivity was measured by liquid scintillation counting using a Beckman LS5000 TA counter (Beckman Coulter, Irvine, Calif.). Specific binding was defined as the difference between total binding and non-specific binding (in the presence of 2-5 μM cold S1P). Standard errors were computed on the basis of triplicate samples from two simultaneous transfections."}, "S1P1 mutant V6.37T": {"target": "T3, S1P1 mutant V6.37T (Homo sapiens, UniProt P21453, V258T)", "T3 construct": "expressed in transfected cells; host or cells: RH7777 (transient, pcDNA3.1)", "T3 sequence (P21453 whole entry V258T)": "as the sequence (P21453 whole entry F205Y) above, with Y205F, V258T counted along it", "test": "[35S]GTPγS binding, S1P1 V6.37T", "format": "biochemical", "settings": "S1P-induced, S1P1 V6.37T in RH7777 cells", "method": "as §1, §2"}, "S1P1 mutant W6.48A": {"target": "T4, S1P1 mutant W6.48A (Homo sapiens, UniProt P21453, W269A)", "T4 construct": "expressed in transfected cells", "T4 sequence (P21453 whole entry W269A)": "as the sequence (P21453 whole entry F205Y) above, with Y205F, W269A counted along it", "test": "[35S]GTPγS binding, S1P1 W6.48A", "format": "biochemical", "settings": "S1P-induced, S1P1 W6.48A in RH7777 cells", "method": "as §1, §2"}, "S1P1 mutant K5.38A": {"target": "T5, S1P1 mutant K5.38A (Homo sapiens, UniProt P21453, K200A)", "T5 construct": "expressed in transfected cells; host or cells: RH7777 (transient, pcDNA3.1)", "T5 sequence (P21453 whole entry K200A)": "as the sequence (P21453 whole entry F205Y) above, with K200A, Y205F counted along it", "test": "[35S]GTPγS binding, S1P1 K5.38A", "format": "biochemical", "settings": "S1P-induced, S1P1 K5.38A in RH7777 cells", "method": "as §1, §2"}, "S1P1 mutant T5.45S": {"target": "T6, S1P1 mutant T5.45S (Homo sapiens, UniProt P21453, T207S)", "T6 construct": "expressed in transfected cells; host or cells: RH7777 (transient, pcDNA3.1)", "T6 sequence (P21453 whole entry T207S)": "as the sequence (P21453 whole entry F205Y) above, with Y205F, T207S counted along it", "test": "[35S]GTPγS binding, S1P1 T5.45S", "format": "biochemical", "settings": "S1P-induced, S1P1 T5.45S in RH7777 cells", "method": "as §1, §2"}, "S1P1 mutant C5.44D": {"target": "T7, S1P1 mutant C5.44D (Homo sapiens, UniProt P21453, C206D)", "T7 construct": "expressed in transfected cells; host or cells: RH7777 (transient, pcDNA3.1)", "T7 sequence (P21453 whole entry C206D)": "as the sequence (P21453 whole entry F205Y) above, with Y205F, C206D counted along it", "test": "[35S]GTPγS binding, S1P1 C5.44D", "format": "biochemical", "settings": "S1P-induced, S1P1 C5.44D in RH7777 cells", "method": "as §1, §2"}, "S1P1 mutant L3.36E [2]": {"target": "T2, S1P1 mutant L3.36E", "test": "[32P]S1P competition binding, HEK-293 cells, L3.36E", "design": "expressed in transfected cells", "settings": "S1P1 L3.36E", "method": "For the competition assays, HEK-293 cells were used. Briefly, 4×10^5 cells were plated in 24-well dishes and allowed to adhere overnight. The cells were then transfected with 0.4 μg of the cDNA using Lipofectamine 2000 (Invitrogen) and the transfection proceeded for 48 h. After washing the cells twice with ice-cold binding buffer (20 mM Tris-HCl, pH 7.4 and 150 mM NaCl), 0.1 nM [^32P]S1P and competing concentrations of cold S1P (1 nM-10 μM), resuspended in binding buffer+4% BSA, were applied to the cells and incubated on ice for 30 min. After washing the cells twice with ice-cold binding buffer+0.4% BSA, the cells were lysed with 0.5% SDS and equilibrated in scintillation fluid. The samples were measured in triplicate."}, "S1P1 mutant L5.52A": {"target": "T8, S1P1 mutant L5.52A (Homo sapiens, UniProt P21453, L214A)", "T8 construct": "expressed in transfected cells; host or cells: RH7777", "T8 sequence (P21453 whole entry L214A)": "as the sequence (P21453 whole entry F205Y) above, with Y205F, L214A counted along it", "test": "[35S]GTPγS binding, S1P1 L5.52A", "format": "biochemical", "settings": "S1P-induced, S1P1 L5.52A in RH7777 cells", "method": "as §1, §2"}, "S1P1 mutant F5.48G": {"target": "T9, S1P1 mutant F5.48G (Homo sapiens, UniProt P21453, F210G)", "T9 construct": "expressed in transfected cells", "T9 sequence (P21453 whole entry F210G)": "as the sequence (P21453 whole entry F205Y) above, with Y205F, F210G counted along it", "test": "[35S]GTPγS binding, S1P1 F5.48G", "format": "biochemical", "settings": "S1P-induced, S1P1 F5.48G in RH7777 cells", "method": "as §1, §2"}, "S1P1 mutant V5.47T": {"target": "T10, S1P1 mutant V5.47T (Homo sapiens, UniProt P21453, V209T)", "T10 construct": "expressed in transfected cells; host or cells: RH7777", "T10 sequence (P21453 whole entry V209T)": "as the sequence (P21453 whole entry F205Y) above, with Y205F, V209T counted along it", "test": "[35S]GTPγS binding, S1P1 V5.47T", "format": "biochemical", "settings": "S1P-induced, S1P1 V5.47T in RH7777 cells", "method": "as §1, §2"}, "S1P1 mutant L6.41E": {"target": "T11, S1P1 mutant L6.41E (Homo sapiens, UniProt P21453, L262E)", "T11 construct": "expressed in transfected cells; host or cells: RH7777", "T11 sequence (P21453 whole entry L262E)": "as the sequence (P21453 whole entry F205Y) above, with Y205F, L262E counted along it", "test": "[35S]GTPγS binding, S1P1 L6.41E", "format": "biochemical", "settings": "S1P-induced, S1P1 L6.41E in RH7777 cells", "method": "as §1, §2"}, "[3]": {"target": "T12, S1P1 double mutant L3.43, 3.44E (Homo sapiens, UniProt P21453, L135E/L136E)", "T12 construct": "expressed in transfected cells; host or cells: RH7777", "T12 sequence (P21453 whole entry L135E/L136E)": "as the sequence (P21453 whole entry F205Y) above, with L135E, L136E, Y205F counted along it", "test": "[35S]GTPγS binding, S1P1 L3.43, 3.44E", "format": "biochemical", "settings": "S1P-induced, S1P1 L3.43, 3.44E in RH7777 cells", "method": "as §1, §2"}, "S1P1 mutant I5.41F": {"target": "T13, S1P1 mutant I5.41F (Homo sapiens, UniProt P21453, I203F)", "T13 construct": "expressed in transfected cells; host or cells: RH7777 (transient, pcDNA3.1)", "T13 sequence (P21453 whole entry I203F)": "as the sequence (P21453 whole entry F205Y) above, with I203F, Y205F counted along it", "test": "[35S]GTPγS binding, S1P1 I5.41F", "format": "biochemical", "settings": "S1P-induced, S1P1 I5.41F in RH7777 cells", "method": "as §1, §2"}, "S1P1 mutant W6.48E": {"target": "T14, S1P1 mutant W6.48E (Homo sapiens, UniProt P21453, W269E)", "T14 construct": "expressed in transfected cells; host or cells: RH7777", "T14 sequence (P21453 whole entry W269E)": "as the sequence (P21453 whole entry F205Y) above, with Y205F, W269E counted along it", "test": "[35S]GTPγS binding, S1P1 W6.48E", "format": "biochemical", "settings": "S1P-induced, S1P1 W6.48E in RH7777 cells", "method": "as §1, §2"}},
  "data": [
    {"smiles": "CCCCCCCCCCCCC/C=C/[C@@H](O)[C@@H](N)COP(=O)(O)O", "note": "[S1P, Sphingosine 1-phosphate]", "values": [
      {"measurement": "EC50", "setting": "S1P1 mutant F5.43Y", "result": 23, "unit": "nM"},
      {"measurement": "Emax", "setting": "S1P1 mutant F5.43Y; read-out: % WT Emax + s.d.", "result": 90, "unit": "%"},
      {"measurement": "[32P]S1P binding relative to WT", "setting": "S1P1 mutant L3.36E [1]", "result": "> 50 % of the WT"},
      {"measurement": "EC50", "setting": "S1P1 mutant V6.37T", "result": 13, "unit": "nM"},
      {"measurement": "Emax", "setting": "S1P1 mutant V6.37T; read-out: % WT Emax + s.d.", "result": 181, "unit": "%"},
      {"measurement": "EC50", "setting": "S1P1 mutant W6.48A", "result": "13 ± 4.2", "unit": "nM"},
      {"measurement": "Emax", "setting": "S1P1 mutant W6.48A; read-out: % WT Emax + s.d.", "result": "34 ± 1.5", "unit": "%"},
      {"measurement": "EC50", "setting": "S1P1 mutant K5.38A", "result": 32.4, "unit": "nM"},
      {"measurement": "Emax", "setting": "S1P1 mutant K5.38A; read-out: % WT Emax + s.d.", "result": 97, "unit": "%"},
      {"measurement": "EC50", "setting": "S1P1 mutant T5.45S", "result": 7.9, "unit": "nM"},
      {"measurement": "Emax", "setting": "S1P1 mutant T5.45S; read-out: % WT Emax + s.d.", "result": 28, "unit": "%"},
      {"measurement": "EC50", "setting": "S1P1 mutant C5.44D", "result": "79 ± 17", "unit": "nM"},
      {"measurement": "Emax", "setting": "S1P1 mutant C5.44D; read-out: % WT Emax + s.d.", "result": 85, "unit": "%"},
      {"measurement": "Bmax", "setting": "S1P1 mutant L3.36E [2]", "result": 1980, "unit": "fmol"},
      {"measurement": "Kd", "setting": "S1P1 mutant L3.36E [2]; competition with cold S1P, read-out: KD + s.d.", "result": 27.8, "unit": "nM"},
      {"measurement": "% WT Emax + s.d.", "setting": "S1P1 mutant L5.52A", "result": "∞"},
      {"measurement": "EC50 + s.d.", "setting": "S1P1 mutant L5.52A", "result": "∞"},
      {"measurement": "% WT Emax + s.d.", "setting": "S1P1 mutant F5.48G", "result": "∞"},
      {"measurement": "EC50 + s.d.", "setting": "S1P1 mutant F5.48G", "result": "∞"},
      {"measurement": "EC50", "setting": "S1P1 mutant V5.47T", "result": 89, "unit": "nM"},
      {"measurement": "Emax", "setting": "S1P1 mutant V5.47T; read-out: % WT Emax + s.d.", "result": 100, "unit": "%"},
      {"measurement": "EC50", "setting": "S1P1 mutant L6.41E", "result": "4.1 ± 0.63", "unit": "nM"},
      {"measurement": "Emax", "setting": "S1P1 mutant L6.41E; read-out: % WT Emax + s.d.", "result": 59, "unit": "%"},
      {"measurement": "% WT Emax + s.d.", "setting": "[3]", "result": "∞"},
      {"measurement": "EC50 + s.d.", "setting": "[3]", "result": "∞"},
      {"measurement": "EC50", "setting": "S1P1 mutant I5.41F", "result": 18.9, "unit": "nM"},
      {"measurement": "Emax", "setting": "S1P1 mutant I5.41F; read-out: % WT Emax + s.d.", "result": 27, "unit": "%"},
      {"measurement": "% WT Emax + s.d.", "setting": "S1P1 mutant W6.48E", "result": "∞"},
      {"measurement": "EC50 + s.d.", "setting": "S1P1 mutant W6.48E", "result": "∞"}
    ]}
  ]
}
